Results: ChEMBL document CHEMBL4765487, “From a Designer Drug to the Discovery of Selective Cannabinoid Type 2 Receptor Agonists with Favorable Pharmacokinetic Profiles for the Treatment of Systemic Sclerosis” (J Med Chem, 2021)
Activity calls are given as the source filed them. The calls are words filed in the database; no cut-off is given here.

Key:
[1] = biological target: T1, Cannabinoid receptor 2 (Homo sapiens, UniProt P34972); experiment: Antagonist activity at human CB2 receptor expressing CHO cells co-expressing Galpha16 assessed as inhibition of CP55940-induced calcium mobilization pre-incubated for 15 mins before CP55940 addition; assay type: functional, cell-based
[2] = biological target: T2, Cannabinoid receptor 1 (Homo sapiens, UniProt P21554); experiment: Agonist activity at human CB1 receptor expressing CHO cells co-expressing Galpha16 by calcium mobilization assay; assay type: functional, cell-based
[3] = biological target: T1, Cannabinoid receptor 2; experiment: Agonist activity at human CB2 receptor expressing CHO cells co-expressing Galpha16 by calcium mobilization assay; assay type: functional, cell-based
[4] = biological target: T2, Cannabinoid receptor 1; experiment: Agonist activity at human CB1 receptor expressing CHO cells co-expressing Galpha16 by calcium mobilization assay relative to CP55940; assay type: functional, cell-based
[5] = biological target: T1, Cannabinoid receptor 2; experiment: Agonist activity at human CB2 receptor expressing CHO cells co-expressing Galpha16 by calcium mobilization assay relative to CP55940; assay type: functional, cell-based
[6] = in vitro; details: human, liver microsomes
[7] = in vitro; details: human, liver
[8] = in vitro; details: human, liver microsomes; remark: listed apart in the source
Description: Half life in human liver microsomes at 1 uM in presence of NADPH by LC-MS/MS analysis

[9] = in vitro; details: human, liver microsomes; remark: listed apart in the source
Description: Stability in human liver microsomes assessed as parent compound remaining at 1 uM incubated for 60 mins in presence of NADPH by LC-MS/MS analysis

[10] = biological target: T2, Cannabinoid receptor 1; experiment: Agonist activity at CB1 receptor (unknown origin) relative to control; details: filed as agonist
[11] = biological target: T2, Cannabinoid receptor 1; experiment: Agonist activity at CB1 receptor (unknown origin)
[12] = biological target: T1, Cannabinoid receptor 2; experiment: Agonist activity at CB2 receptor (unknown origin) relative to control; details: filed as agonist
[13] = biological target: T2, Cannabinoid receptor 1; experiment: Agonist activity at human CB1 receptor expressing CHO cells co-expressing Galpha16 at 10 uM by calcium mobilization assay; assay type: functional, cell-based; details: filed as agonist
[14] = biological target: T2, Cannabinoid receptor 1; experiment: Induction of receptor desensitization at human CB1 receptor expressing CHO cells co-expressing Galpha16 at 10 uM followed by washing with HBSS buffer upon incubation for 10 mins and restimulated with CP55940 by calcium mobilization assay; assay type: functional, cell-based; details: filed as agonist

T2 sequence (P21554 whole entry): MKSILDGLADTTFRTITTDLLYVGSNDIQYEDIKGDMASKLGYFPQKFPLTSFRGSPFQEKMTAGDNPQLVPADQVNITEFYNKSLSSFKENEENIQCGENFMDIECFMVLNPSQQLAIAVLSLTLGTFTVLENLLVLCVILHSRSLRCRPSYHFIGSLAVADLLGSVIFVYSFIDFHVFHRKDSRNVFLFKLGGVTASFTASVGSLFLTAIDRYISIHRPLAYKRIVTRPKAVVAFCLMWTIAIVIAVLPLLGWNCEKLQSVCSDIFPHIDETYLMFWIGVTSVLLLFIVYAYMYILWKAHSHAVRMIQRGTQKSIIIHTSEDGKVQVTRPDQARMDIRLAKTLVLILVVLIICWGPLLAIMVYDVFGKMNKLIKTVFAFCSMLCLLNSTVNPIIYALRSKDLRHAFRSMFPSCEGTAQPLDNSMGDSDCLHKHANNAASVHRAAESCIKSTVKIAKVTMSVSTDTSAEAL
T1 sequence (P34972 whole entry): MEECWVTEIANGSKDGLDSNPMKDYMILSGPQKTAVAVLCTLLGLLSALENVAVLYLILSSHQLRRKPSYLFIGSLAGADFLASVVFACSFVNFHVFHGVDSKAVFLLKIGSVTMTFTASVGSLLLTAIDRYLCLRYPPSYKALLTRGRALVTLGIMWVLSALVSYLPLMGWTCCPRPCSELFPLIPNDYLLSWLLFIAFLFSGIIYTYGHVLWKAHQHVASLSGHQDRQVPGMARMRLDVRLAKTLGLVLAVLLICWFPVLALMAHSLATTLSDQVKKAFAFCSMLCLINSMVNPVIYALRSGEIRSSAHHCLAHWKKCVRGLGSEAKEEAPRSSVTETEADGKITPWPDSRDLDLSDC

Compound | EC50 [2] [µM] | EC50 [3] [µM] | Emax ([4]; filed as agonist) [%] | Emax ([5]; filed as agonist) [%] | further results
CCCCCn1nc(C(=O)NC(C)(C)CO)cc1C1CCCCC1 | 100 | 100 | – | – | IC50 ([1]; cho): Not Active
CCCCCn1nc(C(=O)NC2CCCCC2)cc1C(C)(C)C | 0.104 | 0.046 | 50 | 80 | –
CCCCCn1nc(C(=O)N[C@@H](C(=O)OC)C(C)(C)C)cc1C(C)(C)C | 0.0043 | 0.0261 | 100 | 100 | –
CC(C)(CO)NC(=O)c1cc(C(C)(C)C)n(-c2ccc(OC(F)(F)F)cc2)n1 | 100 | 100 | – | – | –
O=C(O)Cc1ccccc1Nc1c(Cl)cccc1Cl [DICLOFENAC] | – | – | – | – | microsomal CLint at 1 µM [6]: 129 µL/min/mg; CLint scaled at 1 µM [7]: 116 mL/min/kg
CC(C)(CO)NC(=O)c1cc(C(C)(C)C)n(CC2CC2)n1 | 4.9 | 0.103 | – | 100 | Emax [4]: 20%
CCCCCn1nc(C(C)(C)C)cc1C(=O)NCc1ccc(Cl)cc1 | 100 | 100 | – | – | –
CCCCCn1nc(C(C)(C)C)cc1C(=O)NC12CC3CC(CC(C3)C1)C2 | 100 | 100 | – | – | –
CCCCCn1nc(C(=O)Nc2ccncc2)cc1C(C)(C)C | 0.221 | 0.118 | – | 60 | Emax [4]: 30%
CC(C)(CO)NC(=O)c1cc(C(C)(C)C)n(-c2ccc(F)cc2)n1 | 100 | 0.685 | – | 82 | –
CC(C)(CO)NC(=O)c1cc(C(C)(C)C)n(-c2ncccn2)n1 | 100 | 100 | – | – | –
C[C@]12CC[C@H]3[C@@H](CCC4=CC(=O)CC[C@@]43C)[C@@H]1CC[C@@H]2O [TESTOSTERONE] | – | – | – | – | half-life at 1 µM [8]: 18.8 min; microsomal CLint at 1 µM [6]: 73.6 µL/min/mg; CLint scaled at 1 µM [7]: 66.3 mL/min/kg; remaining at 1 h, 1 µM [9]: 10.7%
COCCn1nc(C(=O)NC(C)(C)CO)cc1C(C)(C)C | 100 | 100 | – | – | –
CCCCn1nc(C(=O)NC(C)(C)CO)cc1C(C)(C)C | 0.101 | 0.0101 | 90 | 100 | –
CCCCCn1nc(C(C)(C)C)cc1C(=O)NC12CC3CC(CC(O)(C3)C1)C2 | 100 | 100 | – | – | –
CCCCCn1nc(C(=O)NC(C)(C)CO)cc1CC(C)(C)C | 0.027 | 0.012 | 90 | 50 | IC50 ([1]; cho): Not Active
CC(C)(CO)NC(=O)c1cc(C(C)(C)C)n(-c2ccccc2)n1 | 100 | 100 | – | – | –
CCCCCn1nc(C(C)(C)C)cc1C(=O)NC(C)(C)CO | 100 | 0.319 | – | 80 | –
CCCCCn1nc(C(=O)NC(C)(C)CO)cc1C(F)(F)F | 0.187 | 0.0538 | 80 | 80 | IC50 ([1]; cho): Not Active
Cc1ccc(-n2nc(C(=O)NC(C)(C)CO)cc2C(C)(C)C)cc1 | 100 | 0.197 | – | 40 | –
CCCCCn1cc(C(=O)NC23CC4CC(CC(C4)C2)C3)c2ccccc21 | – | – | – | – | Emax [10]: 98%; EC50 [11]: 0.034 µM; Emax [12]: 91%
CCCCCn1nc(C(=O)Nc2ccc(Cl)cc2)cc1C(C)(C)C | 100 | 2.35 | – | 80 | –
CC(C)(CO)NC(=O)c1cc(C(C)(C)C)n(CCCCF)n1 | 2.85 | 0.0659 | 100 | 100 | –
CCCCCn1nc(C(=O)NC23CC4CC(CC(C4)C2)C3)cc1C(C)(C)C | 0.271 | 0.194 | – | – | Emax ([4]; filed as partial agonist): 69%; Emax ([5]; filed as partial agonist): 58%
CCCCCn1nc(C(=O)NC(C)(C)CO)cc1C1CC1 | 100 | 100 | – | – | IC50 ([1]; cho): Not Active
CCCCCn1nc(C(=O)NC(C)(C)C)cc1C(C)(C)C | 0.0072 | 0.012 | 100 | 100 | –
CCCCCCC(C)(C)c1ccc([C@@H]2C[C@H](O)CC[C@H]2CCCO)c(O)c1 [CP-55940] | – | – | – | – | IC50 ([1]; cho): Not Active; Activity [13]: Active; Activity [14]: Active

Compound | EC50 [2] [µM] | EC50 [3] [µM] | Emax ([4]; filed as agonist) [%] | Emax ([5]; filed as agonist) [%] | further results
CC(C)(CO)NC(=O)c1cc(C(C)(C)C)n(-c2ccc(Cl)cn2)n1 | 100 | 7.31 | – | 50 | –
CCCCCn1nc(C(=O)NC(C)(C)CO)cc1C(C)(C)C | 0.0174 | 0.0029 | 100 | 100 | half-life at 1 µM [8]: 22.2 min; microsomal CLint at 1 µM [6]: 62.4 µL/min/mg; CLint scaled at 1 µM [7]: 56.1 mL/min/kg; remaining at 1 h, 1 µM [9]: 14.9%
CCCCCn1nc(C(=O)NC(C)(C)CO)c(N)c1C(C)(C)C | 0.195 | 0.0055 | 80 | 100 | IC50 ([1]; cho): Not Active; half-life at 1 µM [8]: 13.3 min; microsomal CLint at 1 µM [6]: 104 µL/min/mg; CLint scaled at 1 µM [7]: 94 mL/min/kg; remaining at 1 h, 1 µM [9]: 4.6%
CCCCCn1nc(C(=O)NC(C)(C)CO)cc1-c1ccc(F)cc1F | 100 | 100 | – | – | IC50 ([1]; read-out: IC50): 0.0871 µM; half-life at 1 µM [8]: 21.4 min; microsomal CLint at 1 µM [6]: 64.6 µL/min/mg; CLint scaled at 1 µM [7]: 58.2 mL/min/kg; remaining at 1 h, 1 µM [9]: 14.1%
CC(C)(CO)NC(=O)c1cc(C(C)(C)C)n(-c2ccccn2)n1 | 100 | 3.89 | – | 80 | –
CC(C)(CO)NC(=O)c1cc(C(C)(C)C)n(CCCF)n1 | 100 | 0.184 | – | 100 | –
CC(C)(CO)NC(=O)c1cc(C(C)(C)C)n(-c2ccc(F)cn2)n1 | 100 | 0.135 | – | 100 | –
CCCCCn1nc(C(=O)N[C@@H](C(=O)OC)C(C)C)cc1C(C)(C)C | 0.0016 | 0.0074 | 90 | 90 | half-life at 1 µM [8]: 11.8 min; microsomal CLint at 1 µM [6]: 117 µL/min/mg; CLint scaled at 1 µM [7]: 105 mL/min/kg; remaining at 1 h, 1 µM [9]: 2.9%
CC(C)(CO)NC(=O)c1cc(C(C)(C)C)n(CCCCCF)n1 | 0.043 | 0.0364 | 90 | 70 | –
CC(C)(CO)NC(=O)c1cc(C(C)(C)C)n(-c2ncc(C(F)(F)F)cc2Cl)n1 | 100 | 100 | – | – | –
CCCCCn1nc(C(=O)NC(C)(C)CO)c(Cl)c1C(C)(C)C | 0.0339 | 0.0034 | 50 | 100 | IC50 ([1]; cho): Not Active
CC(C)(CO)NC(=O)c1cc(C(C)(C)C)n(-c2ccc(Cl)cc2)n1 | 100 | 0.204 | – | 100 | –
COc1ccc(-n2nc(C(=O)NC(C)(C)CO)cc2C(C)(C)C)cc1 | 100 | 100 | – | – | –
CCCCCn1nc(C(=O)NCc2ccc(Cl)cc2)cc1C(C)(C)C | 100 | 100 | – | – | –
CCCCCn1nc(C(C)(C)C)cc1C(=O)NC(C)(C)C | 100 | 0.301 | – | 80 | –
CCCCCn1nc(C(=O)NC23CC4CC(CC(O)(C4)C2)C3)cc1C(C)(C)C | 0.004 | 100 | 100 | – | –
CCCCCCn1nc(C(=O)NC(C)(C)CO)cc1C(C)(C)C | 0.047 | 0.0134 | 100 | 100 | –
CCCCCn1nc(C(=O)NC(C)(C)CO)c(Br)c1C(C)(C)C | 0.027 | 0.002 | 50 | 100 | IC50 ([1]; cho): Not Active
CCCCCn1nc(C(C)(C)C)cc1C(=O)Nc1ccc(Cl)cc1 | 100 | 100 | – | – | –
CCCCCn1nc(C(=O)NC(C)(C)CO)c([N+](=O)[O-])c1C(C)(C)C | 0.129 | 0.0133 | 100 | 70 | IC50 ([1]; cho): Not Active
CCCn1nc(C(=O)NC(C)(C)CO)cc1C(C)(C)C | 100 | 0.21 | – | 100 | –
CC(C)(CO)NC(=O)c1cc(C(C)(C)C)n(-c2ccc(F)cc2F)n1 | 100 | 1.73 | – | 80 | –
CCCCCn1nc(C(=O)NC(C)(C)CO)cc1C(C)C | 0.171 | 0.0385 | 90 | 70 | IC50 ([1]; cho): Not Active
CC(C)(CO)NC(=O)c1cc(C(C)(C)C)n(-c2ccc(C(F)(F)F)cc2)n1 | 100 | 100 | – | – | –
CC(C)(CO)NC(=O)c1cc(C(C)(C)C)n(-c2cccnc2)n1 | 100 | 100 | – | – | –
CCCCCn1nc(C(=O)N[C@H](C(=O)OC)C(C)C)cc1C(C)(C)C | 0.0266 | 0.0072 | 70 | 100 | –
